From patent publication US20120022026A1, “METHOD OF TREATING CANCER” (ERASMUS UNIVERSITY MEDICAL CENTER ROTTERDAM, priority 2009, published 2012)
Read-outs that look alike come from different tables or passages of the source. Residues, ends and D or L forms follow the SMILES beside them. *: point of attachment. Cbz = O=C(OCc1ccccc1)*

How the values were obtained:
PARP-2 = PARP-2 (Homo sapiens, UniProt Q9UGN5); settings: cited from earlier work
PARP = settings: cited from earlier work
R1 cells = experiment: Clonogenic assay, R1 cells with mild hyperthermia; format: cell-based, rat; settings: R1, 41° C.; for clonogenic survival: combination of 100 μM NU1025 and 100 nM 17-DMAG (FIG. 4B)
Procedure: (§1) Embryonic stem (ES) cells were cultured on gelatin-coated dishes in a 1:1 mixture of Dulbecco's modified Eagle's medium (DMEM) and buffalo rat liver conditioned medium, supplemented with 10% FBS (Hyclone), 0.1 mM nonessential amino acids (Biowhittaker), […] β-mercaptoethanol (Sigma) and 500 U ml-1 leukemia inhibitory factor. Other cells were cultured in following media, supplemented with 10% (v/v) FCS and streptomycin/penicillin: 1:1 mixture of DMEM and Ham's F10 (HeLa), DMEM (human melanoma [BLM], osteosarcoma [U2OS], cervix carcinoma cells), L-15 (human squamous lung carcinoma [SW-1573]), Eagle's MEM (mouse osteosarcoma [MOS], rat rhabdomyosarcoma [R1]). Cells were maintained at 37° C. in an atmosphere containing 5% (HeLa, BLM), 10% (U2OS, cervix carcinoma cells), 2% (R1) or 0% (SW-1573) CO2. Patients with cervical cancer expressed written informed consent to provide fresh biopsies during an investigation under general anesthesia, and use the tumor specimens for this study. This study was approved by the medical ethical committee of the AMC (MEC #03/137). The biopsies were minced using scalpel, then incubated in Liberase Blendzyme enzyme cocktail (Roche) in DMEM for 60 min at 37° C. and plated on glass coverslips in fresh culture medium. All incubations at elevated temperature were performed in a heated waterbath or in a water-filled cuvette placed in an incubator set to required temperature, in an atmosphere containing appropriate CO2 concentration.
The following inhibitors were used at the indicated final concentrations: 17-DMAG, 100 nM (Sigma-Aldrich), NU1025, 100 μM (Sigma-Aldrich), MG-132, 10 μM (Calbiochem).
(§2) In experiments involving NU1025 or irradiation, cells were trypsinized, counted and plated at appropriate concentrations into 60- or 35 mm dishes. […] Cells were then incubated for 7-14 days, fixed, stained and colonies exceeding 50 cells were counted. […] In experiments involving a combination of NU1025 and 17-DMAG, cells were first treated as indicated and subsequently trypsinized, counted and plated at various concentrations. […]

BRCA2 [1] = experiment: Immunoblotting of BRCA2 in BLM cells under mild hyperthermia; format: cell-based, human; settings: hyperthermia plus 100 nM 17-DMAG vs heat without 17-DMAG or 17-DMAG at 37° C. (FIG. 4A)
Procedure: as §1, with “The biopsies were minced using scalpel, then incubated in Liberase Blendzyme enzyme cocktail (Roche) in DMEM for 60 min at 37° C. and plated on glass coverslips in fresh culture medium. All incubations at elevated temperature were performed in a heated waterbath or in a water-filled cuvette placed in an incubator set to required temperature, in an atmosphere containing appropriate CO2 concentration.” left out
(§3) Cells were lysed in SDS sample buffer (2% SDS, 10% glycerol, 60 mM Tris-HCl pH 6.8). […] Protein concentration was determined by the Lowry protein assay, extracts were supplemented with 0.5% […] and 0.02% bromophenol blue. […]

[2] = system: HR-mediated gene targeting; experiment: Gene targeting efficiency assay in ES cells; format: cell-based; settings: mouse ES cells, 41° C. plus 100 nM 17-DMAG vs heat without 17-DMAG or 17-DMAG at 37° C. (FIG. 1C)
Procedure: as §1, with “All incubations at elevated temperature were performed in a heated waterbath or in a water-filled cuvette placed in an incubator set to required temperature, in an atmosphere containing appropriate CO2 concentration.” left out

BRCA2 [3] = experiment: Immunoblotting of BRCA2 in HeLa cells under mild hyperthermia; format: cell-based; settings: exposed to 41° C. in presence of 10 μM MG132 (FIG. 2C)
Procedure: as §1, with “The biopsies were minced using scalpel, then incubated in Liberase Blendzyme enzyme cocktail (Roche) in DMEM for 60 min at 37° C. and plated on glass coverslips in fresh culture medium. All incubations at elevated temperature were performed in a heated waterbath or in a water-filled cuvette placed in an incubator set to required temperature, in an atmosphere containing appropriate CO2 concentration.” left out
as §3

U2OS cells = experiment: Clonogenic assay, U2OS cells with mild hyperthermia; format: cell-based, human; settings: 41° C., 100 μM NU1025 (FIG. 3A)
Procedure: (§4) Embryonic stem (ES) cells were cultured on gelatin-coated dishes in a 1:1 mixture of Dulbecco's modified Eagle's medium (DMEM) and buffalo rat liver conditioned medium, supplemented with 10% FBS (Hyclone), 0.1 mM nonessential amino acids (Biowhittaker), […] β-mercaptoethanol (Sigma) and 500 U ml-1 leukemia inhibitory factor. Other cells were cultured in following media, supplemented with 10% (v/v) FCS and streptomycin/penicillin: 1:1 mixture of DMEM and Ham's F10 (HeLa), DMEM (human melanoma [BLM], osteosarcoma [U2OS], cervix carcinoma cells), L-15 (human squamous lung carcinoma [SW-1573]), Eagle's MEM (mouse osteosarcoma [MOS], rat rhabdomyosarcoma [R1]). Cells were maintained at 37° C. in an atmosphere containing 5% (HeLa, BLM), 10% (U2OS, cervix carcinoma cells), 2% (R1) or 0% (SW-1573) CO2. […]
as §2

SW-1573 cells = experiment: Clonogenic assay, SW-1573 cells; format: cell-based, human
Procedure: as §4, §2

MOS cells = experiment: Clonogenic assay, MOS cells; format: cell-based, mouse
Procedure: as §4, §2

recombinant PARP-1 = recombinant PARP-1 (Homo sapiens, UniProt P09874); settings: recombinant PARP-1, cell-free assay; read-out: competitive inhibition Ki; cited from earlier work
recombinant PARP-1, sequence (P09874 whole entry, species assumed, canonical isoform): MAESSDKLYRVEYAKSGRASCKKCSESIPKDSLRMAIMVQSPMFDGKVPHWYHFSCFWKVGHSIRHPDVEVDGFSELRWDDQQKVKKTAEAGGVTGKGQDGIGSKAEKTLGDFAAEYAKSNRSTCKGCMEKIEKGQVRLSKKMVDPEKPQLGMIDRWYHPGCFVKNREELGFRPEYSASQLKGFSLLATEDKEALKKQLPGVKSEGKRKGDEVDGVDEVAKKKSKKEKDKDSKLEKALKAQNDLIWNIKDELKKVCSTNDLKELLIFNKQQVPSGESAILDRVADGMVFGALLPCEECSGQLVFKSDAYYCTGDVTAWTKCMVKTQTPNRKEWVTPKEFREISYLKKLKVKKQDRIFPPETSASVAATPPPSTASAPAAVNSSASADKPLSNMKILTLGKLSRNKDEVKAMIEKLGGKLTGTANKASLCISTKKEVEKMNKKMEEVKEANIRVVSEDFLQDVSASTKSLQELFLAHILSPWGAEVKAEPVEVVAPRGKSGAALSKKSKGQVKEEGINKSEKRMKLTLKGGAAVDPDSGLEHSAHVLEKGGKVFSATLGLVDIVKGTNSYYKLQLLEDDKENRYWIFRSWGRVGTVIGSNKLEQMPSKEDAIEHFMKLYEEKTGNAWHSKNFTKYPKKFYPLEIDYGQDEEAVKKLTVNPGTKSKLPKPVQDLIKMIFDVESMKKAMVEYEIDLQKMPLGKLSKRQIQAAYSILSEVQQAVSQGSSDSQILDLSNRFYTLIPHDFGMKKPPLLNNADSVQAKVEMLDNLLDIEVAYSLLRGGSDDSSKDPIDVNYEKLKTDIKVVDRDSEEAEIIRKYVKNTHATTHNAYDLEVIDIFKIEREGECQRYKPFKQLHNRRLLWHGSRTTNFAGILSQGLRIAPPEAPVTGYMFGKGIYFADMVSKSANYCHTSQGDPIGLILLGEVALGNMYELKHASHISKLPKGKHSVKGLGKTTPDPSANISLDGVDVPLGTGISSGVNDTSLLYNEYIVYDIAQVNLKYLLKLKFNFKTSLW

[4] = PARP inhibitor potency as listed, isoform not stated

PARP-2, sequence (Q9UGN5 whole entry, species assumed): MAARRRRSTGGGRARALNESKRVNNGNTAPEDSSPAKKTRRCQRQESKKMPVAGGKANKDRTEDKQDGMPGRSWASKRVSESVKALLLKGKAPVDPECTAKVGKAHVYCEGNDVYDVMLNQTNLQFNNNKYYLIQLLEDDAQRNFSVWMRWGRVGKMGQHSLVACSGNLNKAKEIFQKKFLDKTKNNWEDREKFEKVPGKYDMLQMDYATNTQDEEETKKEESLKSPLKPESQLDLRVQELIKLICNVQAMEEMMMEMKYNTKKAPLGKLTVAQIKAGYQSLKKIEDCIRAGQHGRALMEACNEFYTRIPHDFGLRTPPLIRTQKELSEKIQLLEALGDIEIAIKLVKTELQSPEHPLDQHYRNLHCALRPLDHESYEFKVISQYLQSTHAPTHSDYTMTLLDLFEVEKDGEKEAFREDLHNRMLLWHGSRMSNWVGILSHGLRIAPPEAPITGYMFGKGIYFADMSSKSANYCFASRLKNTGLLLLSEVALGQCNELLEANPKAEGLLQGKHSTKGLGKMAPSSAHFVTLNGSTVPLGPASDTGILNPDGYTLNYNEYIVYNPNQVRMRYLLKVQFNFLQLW

For `NC(=O)c1cccc2ncc(-c3ccc(Cl)cc3)nc12` [3-(4-chlorophenyl)quinoxaline-5-carboxamide], the IC50 (PARP-2) is given as 7 nM.
In the case of `Nc1ccc2c3c(cccc13)C(=O)NC2=O` [4-ANI, 4-amino-1,8-naphthalimide], the IC50 (PARP) is given as 180 nM.
With `CO[C@H]1/C=C\C=C(/C)C(=O)NC2=CC(=O)C(NCCN(C)C)=C(C[C@@H](C)C[C@H](OC)[C@H](O)[C@@H](C)/C=C(\C)[C@@H]1OC(N)=O)C2=O` [17-DMAG, 17-dimethylaminoethylamino-17-demethoxy-geldanamycin] the clonogenic survival (R1 cells) was “dramatically reduced”, the “levels of BRCA2 protein” value (BRCA2 [1]) was “further reduced” and the “efficiency of HR-mediated gene targeting” value [2] was “further reduced”.
In the case of `O=C1NCCc2c(OCCCCN3CCCCC3)cccc21` [DPQ, 3,4-dihydro-5[4-(1-piperindinyl)butoxy]-1(2H)-isoquinoline], the IC50 (PARP; [4]) is listed as 40 nM.
In the case of `Cc1nc2c(c(=O)[nH]1)CSCC2` [DR2313, 2-methyl-3,5,7,8-tetrahydrothiopyrano[4,3-d]pyrimidine-4-one], the IC50 (PARP-2) is listed as 240 nM.
In the case of `Nc1ncnc2c1ncn2C1OC(C(=O)N2CCN(CC(=O)Nc3cccc4c3CNC4=O)CC2)C(O)C1O` [EB-47, 1-piperazineacetamide,4-[1-(6-amino-9H-purin-9-yl)-1-deoxy-6-D-ribofuranuron]-N-(2,3-dihydro-1H-isoindol-4-yl)-1-one], the IC50 (PARP; [4]) is given as 45 nM.
In the case of `Oc1cccc2c(O)nccc12` [IQD, 1,5-dihydroxyisoquinoline], the IC50 (PARP; [4]) is given as 390 nM.
In the case of `CC(C)C[C@@H](C=O)NC(=O)[C@H](CC(C)C)NC(=O)[C@H](CC(C)C)NC(=O)OCc1ccccc1` [MG132] (Cbz-Leu-Leu-Leu-aldehyde), the “BRCA2 levels on hyperthermia” value (BRCA2 [3]) is reported as “no decrease of BRCA2 levels”.
With `Cc1nc2c(O)cccc2c(=O)[nH]1` [NU1025, 8-hydroxy-2-methylquinazoline-4-one] the “clonogenic survival compared to hyperthermia alone” value (U2OS cells) was “decrease in clonogenic survival”, the “clonogenic survival compared to hyperthermia alone” value (R1 cells; 100 μM NU1025 (FIG. 3B)) was “decrease in clonogenic survival” and the clonogenic survival (R1 cells) was “dramatically reduced”. The “sensitivity to inhibitor alone” value (SW-1573 cells; SW-1573, NU1025 alone, data not shown) was “insensitive”, the “survival of hyperthermia-treated cells” value (SW-1573 cells; SW-1573, hyperthermia plus NU1025, data not shown) was “did not reduce survival” and the “sensitivity to inhibitor alone” value (MOS cells; NU1025 alone, data not shown) was “insensitive”. The “survival of hyperthermia-treated cells” value (MOS cells; hyperthermia plus NU1025, data not shown) was “did not reduce survival” and the IC50 (PARP) was 400 nM.
In the case of `O=C1N=C2SCC=C2c2ccccc21` [TIQ-A, thieno[2,3-c]isoquinolin-5-one], the IC50 (PARP; [4]) is given as 450 nM.
In the case of `CN(C)c1ccc(O)c2c1C[C@H]1C[C@H]3[C@H](N(C)C)C(O)=C(C(N)=O)C(=O)[C@@]3(O)C(O)=C1C2=O` [minocycline], the Ki (recombinant PARP-1) is listed as 13.8 nM.
